Like-named read-outs stand apart in the source and are kept apart here. *1 amine or outer side, *2 acyl side, *3 side chain or, on linkers, in order; H or OH if unused. Where a SMILES comes first, the peptide text is derived from it. Side-chain parts run from the residue outwards. [ ]: non-standard residue; d: D form. The star is where a group is joined. αMePhe(2-F) = C[C@](N)(Cc1ccccc1F)C(=O)O; γGlu = O=C(O)[C@H](CCC(=O)[*:2])N[*:1]; C14 diacid = O=C(O)CCCCCCCCCCCCC(=O)*; αMeY = C[C@](N)(Cc1ccc(O)cc1)C(=O)O; αMeL = CC(C)C[C@](C)(N)C(=O)O; Orn = NCCC[C@H](N)C(=O)O; AEEA = NCCOCCOCC(=O)O; Aib = CC(C)(N)C(=O)O
How the values were obtained:
Format in all cases: cell-based
[1] = target: T1, hGIPR (Homo sapiens, UniProt P48546); experiment: Functional cAMP formation (HTRF) in HEK-293 clonal cells expressing hGIPR, 0.1% bovine casein, without or with 1.0% human serum albumin; details: for Emax: read-out: hGIPR Emax, % ± SEM; for EC50: geometric mean, read-out: hGIPR EC50, nM (SEM, n)
T1 construct: expressed in transfected cells
T1 sequence (P48546 22-466): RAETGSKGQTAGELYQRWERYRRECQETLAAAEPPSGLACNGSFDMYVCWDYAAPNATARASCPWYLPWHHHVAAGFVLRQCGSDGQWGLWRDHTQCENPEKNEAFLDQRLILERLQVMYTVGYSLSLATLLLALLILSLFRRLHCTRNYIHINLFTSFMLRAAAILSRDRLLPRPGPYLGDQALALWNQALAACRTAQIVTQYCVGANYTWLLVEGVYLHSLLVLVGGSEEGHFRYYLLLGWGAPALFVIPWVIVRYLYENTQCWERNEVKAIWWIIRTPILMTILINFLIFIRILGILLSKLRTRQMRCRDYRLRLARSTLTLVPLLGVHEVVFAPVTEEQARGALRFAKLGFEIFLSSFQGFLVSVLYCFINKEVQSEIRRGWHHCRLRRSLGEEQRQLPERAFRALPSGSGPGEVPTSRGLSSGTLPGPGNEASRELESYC
Method in brief: (§1)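 Cells were stimulated with peptide for 30 min at 37° C, then intracellular cAMP was measured by competitive HTRF (665/620 nm ratio) and converted to nM using a cAMP standard curve. Relative EC50 and Emax came from four-parameter logistic fits of percent maximal response against peptide concentration.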

[2] = target: T2, hGCGR (Homo sapiens, UniProt P47871); experiment: Functional cAMP formation (HTRF) in HEK-293 clonal cells expressing hGCGR, 0.1% bovine casein, without or with 1.0% human serum albumin; details: geometric mean, read-out: hGCGR EC50, nM (SEM, n)
T2 construct: expressed in transfected cells
Method in brief: as §1

[3] = target: hGLP-1R (Homo sapiens, UniProt P43220); experiment: Functional cAMP formation (HTRF) in HEK-293 clonal cells expressing hGLP-1R, 0.1% bovine casein, without or with 1.0% human serum albumin; parameters: expressed in transfected cells; details: for EC50: geometric mean, read-out: hGLP-1R EC50, nM (SEM, n); for Emax: read-out: hGLP-1R Emax, % ± SEM
Method in brief: as §1

[4] = HEK293, 0.1% bovine casein and 1.0% human serum albumin, 37° C., percent of maximal response to GIP(1-42)NH2
[5] = HEK293, percent of maximal response to GIP(1-42)NH2, 37° C., 0.1% bovine casein, arithmetic mean
[6] = 0.1% bovine casein and 1.0% human serum albumin, 37° C.
[7] = cAMP, incubated at 37° C., 0.1% bovine casein (no human serum albumin)
[8] = HEK293, 0.1% bovine casein and 1.0% human serum albumin, 37° C., percent of maximal response to GLP-1(7-36)NH2

T2 sequence (P47871 26-477): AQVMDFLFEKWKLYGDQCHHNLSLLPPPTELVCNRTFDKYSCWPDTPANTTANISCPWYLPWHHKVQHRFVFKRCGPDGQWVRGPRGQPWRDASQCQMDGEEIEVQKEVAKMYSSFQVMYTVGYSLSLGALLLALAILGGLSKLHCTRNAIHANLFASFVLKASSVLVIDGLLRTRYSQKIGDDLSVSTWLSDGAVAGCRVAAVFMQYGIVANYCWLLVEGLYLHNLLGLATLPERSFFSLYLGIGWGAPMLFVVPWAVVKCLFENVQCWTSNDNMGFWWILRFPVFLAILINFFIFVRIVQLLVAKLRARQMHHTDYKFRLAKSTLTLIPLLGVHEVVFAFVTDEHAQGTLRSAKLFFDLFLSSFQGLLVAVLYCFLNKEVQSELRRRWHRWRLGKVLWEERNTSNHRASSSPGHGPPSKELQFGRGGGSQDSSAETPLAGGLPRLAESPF
hGLP-1R, sequence (P43220 24-463): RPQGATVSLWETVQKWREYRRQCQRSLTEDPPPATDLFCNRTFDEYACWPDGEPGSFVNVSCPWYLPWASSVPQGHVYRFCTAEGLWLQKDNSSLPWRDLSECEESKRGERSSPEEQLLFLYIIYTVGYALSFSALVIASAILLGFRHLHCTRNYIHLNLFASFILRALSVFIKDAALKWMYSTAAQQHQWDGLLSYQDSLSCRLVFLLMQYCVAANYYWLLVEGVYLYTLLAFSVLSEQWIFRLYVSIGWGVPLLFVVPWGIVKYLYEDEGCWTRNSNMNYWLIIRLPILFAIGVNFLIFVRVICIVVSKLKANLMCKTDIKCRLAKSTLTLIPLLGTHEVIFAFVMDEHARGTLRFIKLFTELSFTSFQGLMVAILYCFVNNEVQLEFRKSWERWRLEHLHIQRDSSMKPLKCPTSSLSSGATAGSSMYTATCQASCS

Row | Compound | Emax [1, 4] | Emax [1, 5] | EC50 [2, 6] | EC50 [2, 7] | EC50 [3, 6] | EC50 [1, 7] | EC50 [3, 7] | Emax [3, 8] | EC50 [1, 6] | Emax ([3]; HEK293, percent of maximal response to GLP-1(7-36)NH2, 37° C., 0.1% bovine casein, arithmetic mean)
1 | CC[C@H](C)[C@H](NC(=O)[C@H](CC(C)C)NC(=O)[C@](C)(Cc1ccc(O)cc1)NC(=O)[C@@H](CCC(=O)O)NC(=O)[C@@H](NC(=O)[C@H](Cc1ccccc1)NC(=O)[C@H](CCC(=O)O)NC(=O)C(C)(C)NC(=O)[C@H](CCC(N)=O)NC(=O)[C@H](C)NC(=O)[C@H](CCCCNC(=O)COCCOCCNC(=O)COCCOCCNC(=O)CC[C@H](NC(=O)CCCCCCCCCCCCC(=O)O)C(=O)O)NC(=O)[C@H](CCCN)NC(=O)[C@H](CC(=O)O)NC(=O)[C@H](CC(C)C)NC(=O)[C@](C)(CC(C)C)NC(=O)[C@@H](NC(=O)[C@H](CO)NC(=O)C1(NC(=O)[C@H](CC(=O)O)NC(=O)[C@H](CO)NC(=O)[C@@H](NC(=O)[C@](C)(Cc2ccccc2F)NC(=O)[C@@H](NC(=O)CNC(=O)[C@H](CCC(=O)O)NC(=O)C(C)(C)NC(=O)[C@@H](N)Cc2ccc(O)cc2)[C@@H](C)O)[C@@H](C)O)CCCCC1)[C@@H](C)CC)[C@@H](C)CC)C(=O)N[C@@H](CCC(=O)O)C(=O)NCC(=O)NCC(=O)N[C@@H](CCCCNC(=O)COCCOCCNC(=O)COCCOCCNC(=O)CC[C@H](NC(=O)CCCCCCCCCCCCC(=O)O)C(=O)O)C(=O)N[C@@H](CO)C(=O)N[C@@H](CO)C(=O)NCC(=O)N[C@@H](C)C(=O)N1CCC[C@H]1C(=O)N1CCC[C@H]1C(=O)N1CCC[C@H]1C(=O)N[C@@H](CO)C(N)=O [Example 54] | 85.6% | 113% | > 9950 nM | > 9950 nM | 20.3 nM |  |  |  |  | 
2 | CC[C@H](C)[C@H](NC(=O)[C@H](CC(C)C)NC(=O)[C@](C)(Cc1ccc(O)cc1)NC(=O)[C@@H](CCC(=O)O)NC(=O)[C@@H](NC(=O)[C@H](Cc1ccccc1)NC(=O)[C@H](CCC(=O)O)NC(=O)C(C)(C)NC(=O)[C@H](CCC(N)=O)NC(=O)[C@H](C)NC(=O)[C@H](CCCCNC(=O)COCCOCCNC(=O)COCCOCCNC(=O)CC[C@H](NC(=O)CCCCCCCCCCCCC(=O)O)C(=O)O)NC(=O)[C@H](CCCN)NC(=O)[C@H](CC(=O)O)NC(=O)[C@H](CC(C)C)NC(=O)[C@](C)(CC(C)C)NC(=O)[C@@H](NC(=O)[C@H](CO)NC(=O)[C@H](Cc1ccc(-c2ccccc2)cc1)NC(=O)[C@H](CC(=O)O)NC(=O)[C@H](CO)NC(=O)[C@@H](NC(=O)[C@](C)(Cc1ccccc1F)NC(=O)[C@@H](NC(=O)CNC(=O)[C@H](CCC(=O)O)NC(=O)C(C)(C)NC(=O)[C@@H](N)Cc1ccc(O)cc1)[C@@H](C)O)[C@@H](C)O)[C@@H](C)CC)[C@@H](C)CC)C(=O)N[C@@H](CCC(=O)O)C(=O)NCC(=O)NCC(=O)N[C@@H](CCCCNC(=O)COCCOCCNC(=O)COCCOCCNC(=O)CC[C@H](NC(=O)CCCCCCCCCCCCC(=O)O)C(=O)O)C(=O)N[C@@H](CO)C(=O)N[C@@H](CO)C(=O)NCC(=O)N[C@@H](C)C(=O)N1CCC[C@H]1C(=O)N1CCC[C@H]1C(=O)N1CCC[C@H]1C(=O)N[C@@H](CO)C(N)=O [Example 55] | 85.7 ± 0.885% | 97.1 ± 2.16% | > 9950 nM | > 9950 nM | 70.5 nM | 0.0207 nM | 0.154 nM |  |  | 
3 | CC[C@H](C)[C@H](NC(=O)[C@H](CC(C)C)NC(=O)[C@](C)(Cc1ccc(O)cc1)NC(=O)[C@@H](CCC(=O)O)NC(=O)[C@@H](NC(=O)[C@H](Cc1ccccc1)NC(=O)[C@H](CCC(=O)O)NC(=O)C(C)(C)NC(=O)[C@H](CCC(N)=O)NC(=O)[C@H](C)NC(=O)[C@H](CCCCNC(=O)COCCOCCNC(=O)COCCOCCNC(=O)CC[C@H](NC(=O)CCCCCCCCCCCCC(=O)O)C(=O)O)NC(=O)[C@H](CCCN)NC(=O)[C@H](CC(=O)O)NC(=O)[C@H](CC(C)C)NC(=O)[C@](C)(CC(C)C)NC(=O)[C@@H](NC(=O)[C@H](CO)NC(=O)[C@H](Cc1cccc2ccccc12)NC(=O)[C@H](CC(=O)O)NC(=O)[C@H](CO)NC(=O)[C@@H](NC(=O)[C@](C)(Cc1ccccc1F)NC(=O)[C@@H](NC(=O)CNC(=O)[C@H](CCC(=O)O)NC(=O)C(C)(C)NC(=O)[C@@H](N)Cc1ccc(O)cc1)[C@@H](C)O)[C@@H](C)O)[C@@H](C)CC)[C@@H](C)CC)C(=O)N[C@@H](CCC(=O)O)C(=O)NCC(=O)NCC(=O)N[C@@H](CCCCNC(=O)COCCOCCNC(=O)COCCOCCNC(=O)CC[C@H](NC(=O)CCCCCCCCCCCCC(=O)O)C(=O)O)C(=O)N[C@@H](CO)C(=O)N[C@@H](CO)C(=O)NCC(=O)N[C@@H](C)C(=O)N1CCC[C@H]1C(=O)N1CCC[C@H]1C(=O)N1CCC[C@H]1C(=O)N[C@@H](CO)C(N)=O [Example 56] | 91.4 ± 1.04% | 90.3 ± 2.57% | > 9950 nM | > 9950 nM |  | 0.0138 nM |  | 123 ± 6.57% |  | 
4 | CC[C@H](C)[C@H](NC(=O)[C@H](CC(C)C)NC(=O)[C@](C)(Cc1ccc(O)cc1)NC(=O)[C@@H](CCC(=O)O)NC(=O)[C@@H](NC(=O)[C@H](Cc1ccccc1)NC(=O)[C@H](CCC(=O)O)NC(=O)C(C)(C)NC(=O)[C@H](CCC(N)=O)NC(=O)[C@H](C)NC(=O)[C@H](CCCCNC(=O)COCCOCCNC(=O)COCCOCCNC(=O)CC[C@H](NC(=O)CCCCCCCCCCCCC(=O)O)C(=O)O)NC(=O)[C@H](CCCN)NC(=O)[C@H](CC(=O)O)NC(=O)[C@H](CC(C)C)NC(=O)[C@](C)(CC(C)C)NC(=O)[C@@H](NC(=O)[C@H](CO)NC(=O)[C@H](Cc1ccc(OC)cc1)NC(=O)[C@H](CC(=O)O)NC(=O)[C@H](CO)NC(=O)[C@@H](NC(=O)[C@](C)(Cc1ccccc1F)NC(=O)[C@@H](NC(=O)CNC(=O)[C@H](CCC(=O)O)NC(=O)C(C)(C)NC(=O)[C@@H](N)Cc1ccc(O)cc1)[C@@H](C)O)[C@@H](C)O)[C@@H](C)CC)[C@@H](C)CC)C(=O)N[C@@H](CCC(=O)O)C(=O)NCC(=O)NCC(=O)N[C@@H](CCCCNC(=O)COCCOCCNC(=O)COCCOCCNC(=O)CC[C@H](NC(=O)CCCCCCCCCCCCC(=O)O)C(=O)O)C(=O)N[C@@H](CO)C(=O)N[C@@H](CO)C(=O)NCC(=O)N[C@@H](C)C(=O)N1CCC[C@H]1C(=O)N1CCC[C@H]1C(=O)N1CCC[C@H]1C(=O)N[C@@H](CO)C(N)=O [Example 58] (H-Y[Aib]EGT[αMePhe(2-F)]TSDY(Me)SI[αMeL]LD[Orn]K([AEEA-AEEA-γGlu-C14 diacid])AQ[Aib]EFI[dE][αMeY]LIEGGK([AEEA-AEEA-γGlu-C14 diacid])SSGAPPPS-NH2) | 92.2 ± 7.4% | 89.2 ± 5.96% | > 9950 nM | > 9950 nM |  | 0.0158 nM | 0.194 nM |  | 1.12 nM | 
5 | CC[C@H](C)[C@H](NC(=O)[C@H](CC(C)C)NC(=O)[C@](C)(Cc1ccc(O)cc1)NC(=O)[C@@H](CCC(=O)O)NC(=O)[C@@H](NC(=O)[C@H](Cc1ccccc1Cl)NC(=O)[C@H](CCC(=O)O)NC(=O)C(C)(C)NC(=O)[C@H](CCC(N)=O)NC(=O)[C@H](C)NC(=O)[C@H](CCCCNC(=O)COCCOCCNC(=O)COCCOCCNC(=O)CC[C@H](NC(=O)CCCCCCCCCCCCC(=O)O)C(=O)O)NC(=O)[C@H](CCCN)NC(=O)[C@H](CC(=O)O)NC(=O)[C@H](CC(C)C)NC(=O)[C@](C)(CC(C)C)NC(=O)[C@@H](NC(=O)[C@H](CO)NC(=O)[C@H](Cc1ccncc1)NC(=O)[C@H](CC(=O)O)NC(=O)[C@H](CO)NC(=O)[C@@H](NC(=O)[C@](C)(Cc1ccccc1F)NC(=O)[C@@H](NC(=O)CNC(=O)[C@H](CCC(=O)O)NC(=O)C(C)(C)NC(=O)[C@@H](N)Cc1ccc(O)cc1)[C@@H](C)O)[C@@H](C)O)[C@@H](C)CC)[C@@H](C)CC)C(=O)N[C@@H](CCC(=O)O)C(=O)NCC(=O)NCC(=O)N[C@@H](CCCCNC(=O)COCCOCCNC(=O)COCCOCCNC(=O)CC[C@H](NC(=O)CCCCCCCCCCCCC(=O)O)C(=O)O)C(=O)N[C@@H](CO)C(=O)N[C@@H](CO)C(=O)NCC(=O)N[C@@H](C)C(=O)N1CCC[C@H]1C(=O)N1CCC[C@H]1C(=O)N1CCC[C@H]1C(=O)N[C@@H](CO)C(N)=O [Example 61] | 92.8% | 88.2% | > 9950 nM | > 9950 nM |  | 0.012 nM |  | 89.7% |  | 82.9%
